Results on 11 compounds are retold here after ChEMBL document CHEMBL1201862, “PubChem BioAssay data set” (2004).

Some test systems named below: BT-549; Hs-578T; SK-MEL-5; HCT-116; SNB-19; HL-60; SK-MEL-28; CAKI-1; OVCAR-3; K562; SK-MEL-2; NCI/ADR-RES; A549; HOP-62; EKVX; TK-10; UO-31; SR; MDA-MB-435; MDA-N.
What all share (test): NCI tumour cell line growth inhibition, 48 h

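Values below derive from 48-hour exposures of cells grown in 96-well plates, with endpoints linearly interpolated between the two concentrations bracketing the appropriate inhibition level. GI50 marks 50% less growth.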 Active and inactive are the calls of the source. Rule as the data show it: active = GI50 up to about 1.1 µM and inactive = higher. Bounds are passed on as bounds.

For `COc1ccc2c(c1)CC1Cc3cc(OC)c(OC)cc3CN1CC2` (configuration not stated), the GI50 was 32.6 µM (inactive) in the assay on BT-549; 53 µM (inactive) in the assay on Hs-578T; 21.3 µM (inactive) in the assay with SK-MEL-5; 23.5 µM (inactive) in the assay on HCT-116; 35.3 µM (inactive) with SNB-19; 11.1 µM (inactive) in the assay with HL-60. In addition, the GI50 with SK-MEL-28 is 42.8 µM (inactive); in the assay on CAKI-1 it was 35.5 µM (inactive); in the assay with OVCAR-3, 72.4 µM (inactive); with K562, 17.5 µM (inactive); in the assay with SK-MEL-2, 70.1 µM (inactive); in the assay with NCI/ADR-RES, 31.8 µM (inactive). The GI50 in the assay on A549 is 42.4 µM (inactive); with HOP-62 it was 71.3 µM (inactive); in the assay on EKVX it was 32.8 µM (inactive); with TK-10, 22.2 µM (inactive); in the assay on UO-31 it was 15.3 µM (inactive); in the assay with SR, 17.7 µM (inactive). The GI50 in the assay on MDA-MB-435 is 37.9 µM (inactive).

With `Nc1ccc(C(=O)Nn2c(-c3ccccc3)nc3ccccc3c2=O)cc1`, the GI50 was > 100 µM (inactive) in the assay on BT-549; 14.1 µM (inactive) with Hs-578T; > 100 µM (inactive) with SK-MEL-5; > 100 µM (inactive) in the assay with HCT-116; > 100 µM (inactive) with SNB-19; > 100 µM (inactive) in the assay on HL-60. Further, the GI50 with MDA-N, with SK-MEL-28, with OVCAR-3, in the assay with K562, with A549 and in the assay with HOP-62 was > 100 µM (inactive) each time. In addition, the GI50 in the assay on EKVX, with TK-10, in the assay with UO-31, in the assay with SR and in the assay on MDA-MB-435 was > 100 µM (inactive) in each case.

For the compound `CC(=O)NCCCCN(CCCNC(C)=O)C(=O)OCc1ccccc1`, the GI50 in the assay on BT-549, in the assay on Hs-578T, in the assay on SK-MEL-5, with HCT-116, with HL-60 and in the assay with MDA-N was > 100 µM (inactive) throughout. In addition, the GI50 with SK-MEL-28, in the assay with CAKI-1, in the assay on OVCAR-3, in the assay with K562, in the assay on SK-MEL-2 and in the assay on NCI/ADR-RES was > 100 µM (inactive) throughout. The GI50 with A549 is > 100 µM (inactive); in the assay with HOP-62 it was > 100 µM (inactive); in the assay on EKVX, > 100 µM (inactive); in the assay on TK-10 it was > 100 µM (inactive); with UO-31 it was 64.3 µM (inactive); in the assay on MDA-MB-435, > 100 µM (inactive).

As for `O=C(OC(=C(c1ccccc1)c1ccccc1)N1CCCC1=S)C(c1ccccc1)c1ccccc1`, the GI50 was 5.05 µM (inactive) in the assay on BT-549; > 10 µM (inactive) in the assay with Hs-578T; > 10 µM (inactive) in the assay with SK-MEL-5; 4.12 µM (inactive) in the assay with HCT-116; > 10 µM (inactive) in the assay on SNB-19; > 10 µM (inactive) in the assay with HL-60. In addition, the GI50 in the assay on SK-MEL-28 was > 10 µM (inactive); with CAKI-1, > 10 µM (inactive); in the assay with OVCAR-3 it was 7.6 µM (inactive); in the assay with K562, 3.88 µM (inactive); in the assay on SK-MEL-2, > 10 µM (inactive); in the assay on NCI/ADR-RES, 5.87 µM (inactive). Also, the GI50 in the assay with A549 is 4.67 µM (inactive); in the assay with HOP-62 it was > 10 µM (inactive); in the assay with EKVX it was > 10 µM (inactive); with TK-10 it was > 10 µM (inactive); in the assay on UO-31 it was > 10 µM (inactive); in the assay on SR, > 10 µM (inactive). Further, the GI50 in the assay with MDA-MB-435 was > 10 µM (inactive).

On to `COc1c2nc(CCl)n(C)c(=O)c2c(OC)c2c(=O)n(C)c(CCl)nc12`, for which the GI50 with BT-549 was 0.544 µM (active); in the assay on Hs-578T it was 4.27 µM (inactive); in the assay on SK-MEL-5, 1.92 µM (inactive); in the assay on HCT-116, 1.11 µM (active); in the assay on SNB-19, 2.11 µM (inactive); with HL-60, 0.653 µM (active). The GI50 with MDA-N is 1.49 µM (inactive); in the assay with SK-MEL-28, 1.85 µM (inactive); with CAKI-1, 1.6 µM (inactive); in the assay on OVCAR-3, 1.84 µM (inactive); with K562, 0.689 µM (active); in the assay with NCI/ADR-RES it was 2.49 µM (inactive). In addition, the GI50 was 3.08 µM (inactive) in the assay on A549; 1.87 µM (inactive) with HOP-62; 3.31 µM (inactive) in the assay on EKVX; 0.447 µM (active) with TK-10; 1.24 µM (inactive) in the assay on UO-31; 2.11 µM (inactive) with MDA-MB-435.

With `Cc1ccc(-n2cnc3c(N)nc(N)nc32)cc1`, the GI50 with BT-549 is > 100 µM (inactive); in the assay with Hs-578T, 42.7 µM (inactive); in the assay with SK-MEL-5, > 100 µM (inactive); in the assay with HCT-116 it was > 100 µM (inactive); with SNB-19, > 100 µM (inactive); in the assay on MDA-N, > 100 µM (inactive). For the same compound, the GI50 with SK-MEL-28 is > 100 µM (inactive); with CAKI-1, > 100 µM (inactive); in the assay with OVCAR-3 it was > 100 µM (inactive); in the assay with SK-MEL-2 it was > 100 µM (inactive); in the assay with NCI/ADR-RES it was > 100 µM (inactive); with A549, 69.5 µM (inactive). Further, the GI50 in the assay on HOP-62 is > 100 µM (inactive); with EKVX it was 81.5 µM (inactive); with TK-10, 65.6 µM (inactive); with UO-31, 58.9 µM (inactive); in the assay on MDA-MB-435, > 100 µM (inactive).

Consider `CCc1nc(N)nc(N)c1-c1ccc(Cl)c(Cl)c1` [ETOPRINE], for which the GI50 with BT-549 is 51.3 µM (inactive); with Hs-578T, 43 µM (inactive); in the assay on SK-MEL-5, 4.65 µM (inactive); with HCT-116, 0.574 µM (active); with SNB-19 it was 25.2 µM (inactive); with HL-60, > 100 µM (inactive). Besides, the GI50 is > 100 µM (inactive) in the assay on SK-MEL-28; 32 µM (inactive) in the assay on CAKI-1; 24.9 µM (inactive) in the assay on OVCAR-3; 23.4 µM (inactive) with SK-MEL-2; 1.47 µM (inactive) in the assay with NCI/ADR-RES; 0.789 µM (active) in the assay with A549. Further, the GI50 with HOP-62 is 2.93 µM (inactive); with EKVX it was 20.9 µM (inactive); with TK-10, 36.1 µM (inactive); in the assay on UO-31 it was 2.52 µM (inactive); in the assay with SR, 0.755 µM (active); in the assay with MDA-MB-435, 0.818 µM (active).

Consider `O=C(O)c1cccc(CN2CCCCC2)c1`, for which the GI50 in the assay on BT-549, in the assay on Hs-578T, with SK-MEL-5, in the assay on HCT-116, with SNB-19 and in the assay with MDA-N was > 100 µM (inactive) throughout. Further, the GI50 with SK-MEL-28, with CAKI-1, with OVCAR-3, in the assay on K562, in the assay with SK-MEL-2 and in the assay with NCI/ADR-RES was > 100 µM (inactive) in each case. The GI50 in the assay on A549, in the assay on HOP-62, in the assay with EKVX, in the assay with TK-10, with UO-31 and in the assay on MDA-MB-435 was > 100 µM (inactive) in each case.

Turning to `CC(C)(Br)C(Br)CCC1(C2CO2)CO1` (configuration not stated), the GI50 in the assay on BT-549, in the assay with Hs-578T, in the assay with SK-MEL-5, in the assay with HCT-116, with SNB-19 and in the assay with MDA-N was > 5 µM (inactive) each time. In addition, the GI50 in the assay with SK-MEL-28, in the assay on CAKI-1, with OVCAR-3, in the assay on K562, in the assay with NCI/ADR-RES and with A549 was > 5 µM (inactive) in each case. In addition, the GI50 with HOP-62, with EKVX, in the assay on UO-31 and with MDA-MB-435 was > 5 µM (inactive) each time.

As to `Cn1c(S)nc2c(Cl)cc(Cl)cc2c1=O`, the GI50 is > 100 µM (inactive) with BT-549; > 100 µM (inactive) with Hs-578T; 99.5 µM (inactive) with SK-MEL-5; > 100 µM (inactive) with HCT-116; > 100 µM (inactive) in the assay with SNB-19; 18.2 µM (inactive) with HL-60. For the same compound, the GI50 is > 100 µM (inactive) in the assay with MDA-N; > 100 µM (inactive) with SK-MEL-28; 67.9 µM (inactive) in the assay on CAKI-1; > 100 µM (inactive) with OVCAR-3; > 100 µM (inactive) in the assay on SK-MEL-2; > 100 µM (inactive) in the assay with NCI/ADR-RES. In addition, the GI50 in the assay on A549 is > 100 µM (inactive); in the assay with HOP-62, > 100 µM (inactive); in the assay on EKVX, > 100 µM (inactive); with TK-10, > 100 µM (inactive); in the assay with UO-31 it was 64 µM (inactive); in the assay with MDA-MB-435, > 100 µM (inactive).

For `N=C(c1ccc2ccccc2c1)c1ccccc1Cc1ccccc1`, the GI50 was 84.7 µM (inactive) in the assay on BT-549; 37.2 µM (inactive) in the assay on SK-MEL-5; 16.8 µM (inactive) with HCT-116; > 100 µM (inactive) in the assay on SNB-19; 27.5 µM (inactive) in the assay on HL-60; 24.8 µM (inactive) in the assay on MDA-N. The GI50 was 62.4 µM (inactive) in the assay on SK-MEL-28; 55 µM (inactive) with CAKI-1; 22.1 µM (inactive) in the assay with OVCAR-3; 29.9 µM (inactive) with K562; 18.2 µM (inactive) in the assay on SK-MEL-2; 37.2 µM (inactive) with NCI/ADR-RES. Also, the GI50 with A549 is 27.7 µM (inactive); in the assay on HOP-62 it was 39.6 µM (inactive); in the assay on EKVX, 17.3 µM (inactive); in the assay with TK-10, > 100 µM (inactive); in the assay on UO-31, 33.4 µM (inactive); in the assay with SR, 19.9 µM (inactive). Also, in the assay on MDA-MB-435, the GI50 was 22.7 µM (inactive).
